Results on 1 compound are retold here after patent US20090018136A1, “METHODS AND COMPOSITIONS FOR THE TREATMENT OF VASCULAR DISEASE” (priority 2005, published 2009).

In one data set the test system is beagles. The following applies: dog, in vivo, po, 100 mg/kg. As for the experimental part: This study evaluated the cardiovascular effects of high doses of 6R-BH4 in combination with the PDE5 inhibitor sildenafil citrate in vivo. Eight male research nonnaïve and naïve purebred beagles were dosed in a double Latin square crossover design as described in the following table. All animals were dosed by oral gavage. Test articles were administered at a dose volume of 5 mL/kg (for a total volume of 10 mL/kg for the combination dose); control animals were dosed at a dose volume of 10 mL/kg. 6R-BH4 (sapropterin dihydrochloride) provided as 300 mg tablets (100 mg active 6R-BH4/tablet) stored at room temperature with desiccant.
At initiation of treatment, the animals were approximately 7 to 10 months old, and their body weights prior to dosing ranged from 7.8 to 12.0 kg.
At least 2 weeks prior to initiation of treatment, animals were fasted overnight, anesthetized, and an electrocardiogram (ECG) and blood pressure transmitter were implanted into the abdomen and sutured to the abdominal wall. The blood pressure catheter was placed in an artery and advanced to the abdominal aorta. Animals were checked twice daily (a.m. and p.m.) for mortality, abnormalities, and signs of pain and distress. Additional findings were recorded as observed.
Detailed observations were taken three times during the predose phase (including the day before dosing) and on Days 3 and 10 of the dosing phase. For each dosing day, ECG and pressure measurements were recorded for at least 90 minutes prior to dosing, continuously for at least 8 hours after dosing, and then for one period of at least 15 minutes in duration each hour through at least 24 hours postdose. Blood pressure measurements included systolic, diastolic, and mean arterial pressures and pulse pressure (systolic-diastolic). […]
Quantitative evaluation of ECG measurements, including RR interval, QT, and rate-corrected QT (QTc, using Fridericia's method), were done.
Positive inotropic effects (+dP/dtmax) and heart rate were calculated from a left ventricular pressure signal predose and approximately 2, 4, 8, 12, and 24 hours postdose. […]

The test system of data set [1] is subjects with sickle cell disease. As to the kind of experiment: Phase 2a sickle cell disease study: endothelial function by EndoPAT. The following applies: preliminary findings, sickle cell disease patients treated with BH4. It counts as in vivo, human. The procedure:
This Phase 2a multicenter, open-label, dose-escalation study is designed to assess the safety and biologic activity of once daily (for 2.5, 5, and 10 mg/kg/day doses) or twice daily (for the 20 mg/kg/day dose) oral administration of 4 escalating doses of 6R-BH4 to subjects with SCD. During an optional extension phase, the study will assess the safety, tolerability, and efficacy of extended treatment with 6R-BH4. Subjects will receive oral, once-daily (for 2.5, 5, and 10 mg/kg/day) or twice-daily (for 20 mg/kg/day) doses of 6R-BH4 during a 16-week dose-escalation phase, with dose levels increasing within subjects every 4 weeks, as follows: 2.5, 5, 10, and 20 mg/kg/day. Prior to dose escalation, the each subject will be evaluated with respect to safety profile during the previous dose level, using predefined parameters. […] Endothelial function will be evaluated using Doppler echocardiogram (DE), peripheral arterial tonometry (EndoPAT), and exhaled nitric oxide (NO). The symptoms of SCD (frequency of sickle cell crises and vaso-occlusive crises), along with changes in the 6-minute-walk (MW) test, will be monitored. […] The number of tablets will be determined by the dose of sapropterin dihydrochloride, rounded to the nearest 100 mg. […]

For data set [2], the system named is patients with poorly controlled hypertension. The conditions noted are these: cited from earlier work.

The structures appear in SMILES notation.

In the case of `C[C@H](O)[C@H](O)[C@H]1CNc2nc(N)[nH]c(=O)c2N1` [BH4, tetrahydrobiopterin], the “effect on any of the cardiovascular parameters measured” value in the data set with beagles is on record as “No effect”. In addition, the “endothelial function as measured by the EndoPAT device” value in data set [1] is given as “improvement”. The “blood pressure after cessation of therapy” value in data set [2] (6 weeks after cessation) is given as “returned to baseline values”. The FMD following withdrawal entry in data set [2] (after 1 week following withdrawal) was “returned to baseline”. Further, the FMD entry in data set [2] (after 8 weeks of oral BH4 (5 mg/kg/d, 10 mg/kg/d), eight patients) is given as “increased significantly”. Moreover, the “treatment time after which blood pressure reduction was significant” value in data set [2] (human, in vivo) is reported as 3 weeks. Besides, in data set [2] (oral BH4 5 or 10 mg/kg/d over 8 weeks), the “systolic and diastolic pressures” value is “significantly reduced”.
